Experimental data taken from US12509431B2, “1,4-dihydroquinazolinone compounds and uses thereof” (Edgewise Therapeutics, Inc., priority 2022, dated 2025).

Columns and labels:
Type in all cases: biochemical
Conditions in all cases: Table 8
[1] = biological target: T1, Porcine Ventricle myofibrils (left ventricle of Yucatan minipigs) (Sus scrofa, UniProt P79293); assay: Myofibril ATPase assay (PK/LDH NADH-coupled), ventricle myofibrils
T1 construct: Myofibrils from porcine cardiac muscle was isolated from the left ventricle of Yucatan minipigs; tissue Exemplar Genetics; host or cells: left ventricle of Yucatan minipigs
Outline: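 Yucatan minipig left-ventricle myofibrils; ATPase measured by PK/LDH-coupled NADH loss at 340 nm, read every 1.5-2 min for 75 min. Slopes normalized to vehicle (100%) and fit to 4-parameter logistic model; EC25 and, for inhibitors, EC50 calculated.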

[2] = test system: Rabbit Skeletal myofibrils (rabbit psoas muscle); assay: Myofibril ATPase assay (PK/LDH NADH-coupled), skeletal myofibrils
Outline: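 Rabbit psoas myofibrils in pCa (PIPES/CaCl2/EGTA, pH 7.0) buffer; ADP coupled via PK/LDH to NADH loss, read at 340 nm every 1.5–2 min for 75 min. Slopes normalized to vehicle (100%) and fit to 4-parameter logistic for EC25, plus EC50 for inhibitors.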

Porcine Atria myofibrils = assay: Myofibril ATPase assay (PK/LDH NADH-coupled), atria myofibrils
Outline: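 Porcine atrial myofibril ATPase followed via PK/LDH-coupled NADH depletion, absorbance at 340 nm read every 1.5-2 min over 75 min. Slopes (mAU/min) normalized to vehicle as 100% and fit to a 4-parameter logistic; EC25% derived, plus EC50% for inhibitors.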

T1 sequence (P79293 whole entry): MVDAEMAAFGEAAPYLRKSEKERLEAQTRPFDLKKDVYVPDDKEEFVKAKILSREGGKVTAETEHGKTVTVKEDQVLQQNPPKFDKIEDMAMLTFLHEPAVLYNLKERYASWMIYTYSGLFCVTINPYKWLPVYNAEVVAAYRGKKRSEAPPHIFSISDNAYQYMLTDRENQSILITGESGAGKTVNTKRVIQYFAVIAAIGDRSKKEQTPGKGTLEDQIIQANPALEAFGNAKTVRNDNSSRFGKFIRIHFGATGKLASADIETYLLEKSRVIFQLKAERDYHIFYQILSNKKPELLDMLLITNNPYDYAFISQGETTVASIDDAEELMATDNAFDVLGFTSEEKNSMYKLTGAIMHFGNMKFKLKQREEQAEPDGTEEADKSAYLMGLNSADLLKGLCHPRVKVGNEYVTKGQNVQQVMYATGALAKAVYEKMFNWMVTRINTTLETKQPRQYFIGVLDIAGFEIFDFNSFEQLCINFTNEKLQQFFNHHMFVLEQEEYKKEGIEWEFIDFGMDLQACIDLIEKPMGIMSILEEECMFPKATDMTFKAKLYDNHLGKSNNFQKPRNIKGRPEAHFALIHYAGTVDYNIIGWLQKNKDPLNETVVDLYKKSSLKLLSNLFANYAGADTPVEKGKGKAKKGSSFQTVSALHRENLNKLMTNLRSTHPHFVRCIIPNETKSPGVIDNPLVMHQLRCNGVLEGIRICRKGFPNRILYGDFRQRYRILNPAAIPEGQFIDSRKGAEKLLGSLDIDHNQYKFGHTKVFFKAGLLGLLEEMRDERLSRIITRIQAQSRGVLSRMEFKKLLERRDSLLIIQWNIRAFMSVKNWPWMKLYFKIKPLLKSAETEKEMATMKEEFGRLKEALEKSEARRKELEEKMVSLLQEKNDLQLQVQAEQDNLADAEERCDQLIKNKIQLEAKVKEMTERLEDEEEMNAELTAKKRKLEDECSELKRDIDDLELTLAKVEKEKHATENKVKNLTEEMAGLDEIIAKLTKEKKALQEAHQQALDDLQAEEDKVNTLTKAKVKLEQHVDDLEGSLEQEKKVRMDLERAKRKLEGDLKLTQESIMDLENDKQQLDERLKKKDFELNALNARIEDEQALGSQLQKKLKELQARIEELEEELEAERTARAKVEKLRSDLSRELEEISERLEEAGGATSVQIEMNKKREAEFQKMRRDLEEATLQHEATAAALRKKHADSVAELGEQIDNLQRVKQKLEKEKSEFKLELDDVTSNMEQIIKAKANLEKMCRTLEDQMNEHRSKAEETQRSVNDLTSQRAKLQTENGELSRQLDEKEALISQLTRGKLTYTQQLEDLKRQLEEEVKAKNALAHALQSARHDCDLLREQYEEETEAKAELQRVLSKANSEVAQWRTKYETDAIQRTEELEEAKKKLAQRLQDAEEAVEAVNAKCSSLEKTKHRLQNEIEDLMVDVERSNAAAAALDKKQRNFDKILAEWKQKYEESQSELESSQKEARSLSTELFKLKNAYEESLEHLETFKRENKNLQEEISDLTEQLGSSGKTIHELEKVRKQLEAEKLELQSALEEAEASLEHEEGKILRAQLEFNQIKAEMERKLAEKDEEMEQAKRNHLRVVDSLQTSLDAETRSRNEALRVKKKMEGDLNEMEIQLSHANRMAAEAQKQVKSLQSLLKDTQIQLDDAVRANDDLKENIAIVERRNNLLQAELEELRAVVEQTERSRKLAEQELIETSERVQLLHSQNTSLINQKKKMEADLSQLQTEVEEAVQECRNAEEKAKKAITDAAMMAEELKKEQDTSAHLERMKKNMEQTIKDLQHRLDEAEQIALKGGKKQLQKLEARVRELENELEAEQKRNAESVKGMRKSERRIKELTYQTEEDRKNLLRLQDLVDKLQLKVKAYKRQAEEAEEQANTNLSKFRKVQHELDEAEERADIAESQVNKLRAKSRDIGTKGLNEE

| SMILES | Porcine Ventricle IC25 [1] [nM] | Rabbit Psoas IC25 [2] [nM] | Porcine Atria IC25 (Porcine Atria myofibrils) [nM] |
| --- | --- | --- | --- |
| C[C@H](NC(=O)CN1Cc2cc3c(cc2NC1=O)OCCO3)c1ncc(C#N)cc1F [Compound B277] | 73200 | 100000 | 77490 |
| C[C@H](NC(=O)[C@H](C)N1Cc2c(ccc(F)c2F)NC1=O)c1ncc(C#N)cc1F [Compound B278] | 90 | 30 | 30 |
| C[C@H](NC(=O)[C@@H](C)N1Cc2c(ccc(F)c2F)NC1=O)c1ncc(C#N)cc1F [Compound B279] | 700 | 570 | 110 |
| C[C@@H](NC(=O)CN1Cc2c(ccc(F)c2F)NC1=O)c1ncc(C#N)s1 [Compound B280] | 6550 | 1080 | 610 |
| C[C@@H](NC(=O)CN1Cc2c(ccc(F)c2F)NC1=O)c1ncc(C2COC2)cn1 [Compound B282] | 100000 | 100000 | 86130 |
| C[C@H](NC(=O)CN1Cc2c(ccc(F)c2F)NC1=O)c1ncc(C2COC2)cn1 [Compound B283] | 6490 | 100000 | 900 |
| C[C@@H](NC(=O)CN1Cc2c(ccc(F)c2F)NC1=O)c1cc2ccccc2cn1 [Compound B284] | 440 | 100000 | 870 |
| C[C@H](NC(=O)CN1Cc2c(ccc(F)c2F)NC1=O)c1cc2ccccc2cn1 [Compound B285] | 100000 | 100000 | 100000 |
| C[C@@H](NC(=O)CN1Cc2c(ccc(F)c2F)NC1=O)c1ccc2ncccc2n1 [Compound B286] | 8790 | 40680 | 550 |
| C[C@H](NC(=O)CN1Cc2c(ccc(F)c2F)NC1=O)c1ccc2ncccc2n1 [Compound B287] | 100000 | 100000 | 75650 |
| C[C@@H](NC(=O)CN1Cc2c(ccc(F)c2F)NC1=O)c1ccc2ccccc2n1 [Compound B288] | 5290 | 3980 | 260 |
| C[C@H](NC(=O)CN1Cc2c(ccc(F)c2F)NC1=O)c1ccc2ccccc2n1 [Compound B289] | 100000 | 100000 | 100000 |
| C[C@@H](NC(=O)CN1Cc2c(ccc(F)c2F)NC1=O)c1ncc(Br)cc1F [Compound B292] | 540 | 420 | 160 |
| N#Cc1cnc2c(c1)CC[C@H]2NC(=O)CN1C(=O)Nc2ccc(F)cc2C12CC2 [Compound B294] | 39990 | 1830 | 46590 |
| N#Cc1cnc2c(c1)CC[C@@H]2NC(=O)CN1C(=O)Nc2ccc(F)cc2C12CC2 [Compound B295] | 350 | 170 | 250 |
| O=C(CN1C(=O)Nc2ccc(F)c(F)c2C12CC2)N[C@@H]1COc2cc(F)cnc21 [Compound B296] | 390 | 60 | 70 |
| Cc1cccc2c1C1(CC1)N(CC(=O)N[C@@H]1COc3cc(C#N)cnc31)C(=O)N2 [Compound B299] | 100000 | 63220 | 67410 |
| Cc1cccc2c1C1(CC1)N(CC(=O)N[C@H]1COc3cc(C#N)cnc31)C(=O)N2 [Compound B300] | 1420 | 1390 | 1420 |
| Cc1cccc2c1C1(CC1)N(CC(=O)N[C@H](C)c1cnc(C#N)cn1)C(=O)N2 [Compound B301] | 14900 | 2520 | 4280 |
| Cc1cccc2c1C1(CC1)N(CC(=O)N[C@@H](C)c1cnc(C#N)cn1)C(=O)N2 [Compound B302] | 2850 | 5650 | 1080 |
| N#Cc1cc(F)c2c(c1)OC[C@H]2NC(=O)CN1C(=O)Nc2cccc(C#N)c2C12CC2 [Compound B303] | 90 | 20 | 80 |
| N#Cc1cc(F)c2c(c1)OC[C@@H]2NC(=O)CN1C(=O)Nc2cccc(C#N)c2C12CC2 [Compound B304] | 3960 | 1050 | 1120 |

| SMILES | Porcine Ventricle IC25 [1] [nM] | Rabbit Psoas IC25 [2] [nM] | Porcine Atria IC25 (Porcine Atria myofibrils) [nM] |
| --- | --- | --- | --- |
| C[C@@H](NC(=O)CN1C(=O)Nc2ccc(F)c(F)c2C12CC2)c1ncc(C#N)cc1Cl [Compound B306] | 180 | 610 | 100 |
| C[C@H](NC(=O)CN1C(=O)Nc2ccc(F)c(F)c2C12CC2)c1ncc(C#N)cc1Cl [Compound B307] | 70 | 20 | 50 |
| Cc1cccc2c1C1(CC1)N(CC(=O)N[C@H](C)c1ncc(C#N)nc1C)C(=O)N2 [Compound B308] | 100000 | 100000 | 20750 |
| Cc1cccc2c1C1(CC1)N(CC(=O)N[C@@H](C)c1ncc(C#N)nc1C)C(=O)N2 [Compound B309] | 10570 | 2230 | 10360 |
| N#Cc1cnc2c(c1)OC[C@H]2NC(=O)CN1C(=O)Nc2cccc(C#N)c2C12CC2 [Compound B310] | 370 | 80 | 160 |
| N#Cc1cnc2c(c1)OC[C@@H]2NC(=O)CN1C(=O)Nc2cccc(C#N)c2C12CC2 [Compound B311] | 86790 | 100000 | 100000 |
| Cc1cccc2c1C1(CC1)N(CC(=O)N[C@@H]1COc3cc(C#N)cc(F)c31)C(=O)N2 [Compound B312] | 180 | 50 | 100 |
| Cc1cccc2c1C1(CC1)N(CC(=O)N[C@H]1COc3cc(C#N)cc(F)c31)C(=O)N2 [Compound B313] | 3910 | 9120 | 2290 |
| C[C@@H](NC(=O)CN1C(=O)Nc2ccc(F)c(F)c2C12CC2)c1cnc(C#N)cn1 [Compound B314] | 500 | 120 | 40 |
| C[C@H](NC(=O)CN1C(=O)Nc2ccc(F)c(F)c2C12CC2)c1cnc(C#N)cn1 [Compound B315] | 90 | 20 | 50 |
| N#Cc1cc(F)c2c(c1)OC[C@H]2NC(=O)CN1C(=O)Nc2ccc(F)c(F)c2C12CC2 [Compound B319] | 100 | 5960 | 70 |
| N#Cc1cc(F)c2c(c1)OC[C@@H]2NC(=O)CN1C(=O)Nc2ccc(F)c(F)c2C12CC2 [Compound B320] | 240 | 330 | 230 |
| N#Cc1cnc2c(c1)OC[C@H]2NC(=O)CN1C(=O)Nc2ccc(F)c(F)c2C12CC2 [Compound B321] | 970 | 230 | 170 |
| N#Cc1cnc2c(c1)OC[C@@H]2NC(=O)CN1C(=O)Nc2ccc(F)c(F)c2C12CC2 [Compound B322] | 60 | 30 | 70 |
| C[C@@H](NC(=O)CN1C(=O)Nc2ccc(F)c(F)c2C12CC2)c1ncc(C#N)cc1F [Compound B323] | 320 | 630 | 100 |
| C[C@H](NC(=O)CN1C(=O)Nc2ccc(F)c(F)c2C12CC2)c1ncc(C#N)cc1F [Compound B324] | 50 | 30 | 40 |
| Cc1nc(C#N)cnc1[C@@H](C)NC(=O)CN1C(=O)Nc2ccc(F)c(F)c2C12CC2 [Compound B325] | 3210 | 2340 | 1040 |
| Cc1nc(C#N)cnc1[C@H](C)NC(=O)CN1C(=O)Nc2ccc(F)c(F)c2C12CC2 [Compound B326] | 60 | 20 | 160 |
| Cc1cc(C#N)nnc1[C@@H](C)NC(=O)CN1C(=O)Nc2ccc(F)cc2C12CC2 [Compound B328] | 100000 | 100000 | 1530 |
| Cc1cc(C#N)nnc1[C@H](C)NC(=O)CN1C(=O)Nc2ccc(F)cc2C12CC2 [Compound B329] | 420 | 130 | 200 |
| Cc1nc(C#N)cnc1[C@@H](C)NC(=O)CN1C(=O)Nc2ccc(F)cc2C12CC2 [Compound B330] | 190 | 50 | 80 |
